The subject of test [1] is myotubes differentiated from C2C12 cells. Kind of test: Mitochondrial calcium measurement with mitochondrially targeted aequorin, caffeine stimulation. It is filed as cell-based. Conditions: NAD+-containing myotubes; Oea 10 μM, NR 0.5 mM; n=6. As for the experimental part:
C2C12 cells were purchased from ATCC. C2C12 cells were seeded in 96-well plates at a density of 15 000 cells per well in DMEM high glucose (Gibco)+10% fetal calf serum. Myotubes were differentiated from C2C12 cells by growing the cells in DMEM containing 2% horse serum, for 6 days. Mitochondrial calcium measurements were carried out using myotubes infected with the adenovirus (from Sirion biotech) expressing the mitochondrially targeted calcium sensor mitochondrial mutated aequorin (Montero et al., 2004). For aequorin reconstitution, 48 hours after infection, cells or myotubes were incubated for 2 h at room temperature (22±° C.) in standard medium (145 mM NaCl, 5 mM KCl, 1 mM MgCl2, 1 mM CaCl2, 10 mM glucose and 10 mM Hepes, pH 7.4) with 1 μM wild-type coelenterazine. Myotubes were stimulated with 5 mM of caffeine and the total calcium transition during stimulation was calculated as the area under the curve. […] Luminescence was measured at the Cytation 3 cell imaging reader (Biotek). Calibration of the luminescence data into Calcium concentration was carried out using an algorithm as described previously (Alvarez & Montero, 2002). Custom module analysis based on Excel (Microsoft) and GraphPad Prism 7.02 (GraphPad) software was used for quantification.

In test [2] the test system is C. elegans. Kind of test: C. elegans lifespan test. It is filed as in vivo, Caenorhabditis elegans. The note with it: treated from day 1 of adulthood; NR 100 μM, Oae 200 μM, wild type N2 worms. The method, then:
C. elegans lifespan tests were performed using about 100 animals per condition and scored manually every other day. The experimental measurements of the effect of nicotinamide riboside, oleuropein aglycone, and the combination NR+Oae treatment were started at day 1 of wild type N2 worm adulthood, in a regimen of chronic exposure till experiments termination.

Test [3] concerns myotubes differentiated from C2C12 cells. The experiment in a line: NAD+ measurement (NAD/NADH Quantification Kit). It is filed as cell-based. Conditions: NAD+-depleted myotubes; NR 0.5 mM, Oea 10 μM; n=6. As for the experimental part:
C2C12 cells were purchased from ATCC. C2C12 cells were seeded in 96-well plates at a density of 15 000 cells per well in DMEM high glucose (Gibco)+10% fetal calf serum. Myotubes were differentiated from C2C12 cells by growing the cells in DMEM containing 2% horse serum, for 6 days.
To obtain a condition of restrictions of NAD bioavailability, C2C12-derived myotubes were treated with 1 μM of FK866, an NAMPT inhibitor, for 3 days before experiment. Luminescence was measured at the Cytation 3 cell imaging reader (Biotek). Calibration of the luminescence data into Calcium concentration was carried out using an algorithm as described previously (Alvarez & Montero, 2002). Custom module analysis based on Excel (Microsoft) and GraphPad Prism 7.02 (GraphPad) software was used for quantification.
NAD^+ measurements were carried out using myotubes treated as previous described and quantifying with NAD/NADH Quantification Kit (Sigma-Aldrich).

As to `C/C=C1/C(O)OC=C(C(=O)OC)[C@H]1CC(=O)OCCc1ccc(O)c(O)c1` (mixture of isomers) [Oleuropein aglycone, oleuropein aglycone], the “integrated mitochondrial calcium rise, evoked by 5 mM caffeine” value in test [1] is listed as “activates mitochondria via mitochondrial Ca^2+ rise”. The mean lifespan extension in test [2] came out at 10%. The NAD production entry in test [3] was “does not boosts NAD production”.

For the compound `NC(=O)c1ccc[n+]([C@@H]2O[C@H](CO)[C@@H](O)[C@H]2O)c1` [Nicotinamide riboside, nicotinamide riboside], in test [1], the “integrated mitochondrial calcium rise, evoked by 5 mM caffeine” value is on record as “does not boost mitochondrial Ca^2+ rise”. Also, the mean lifespan extension in test [2] was 5%.

These data come from patent US20240009219A1, “COMPOSITIONS AND METHODS USING A COMBINATION OF OLEUROPEIN AND NICOTINAMIDE RIBOSIDE FOR CELLULAR ENERGY” (SOCIETE DES PRODUITS NESTLE S.A., priority 2020, published 2024).
